Source: PMC12656327 (Pharmaceutics, 2025)
Where “and” joins values, the source holds several entries; their conditions need not be identical. Equal entries are not always repeated. Where two headings read alike, the source gives them in different places.

What was measured:
[1] = design: method as in PMID 40006597; conditions: % NO2− (μmol/μmol), cited from earlier work; for NO Released (%) 1 h: 1 h incubation; for NO Released (%) 24 h: 24 h incubation; for NO Released (%) 48 h: 48 h incubation
AB1 cells [2] = test: JC-1 assay of mitochondrial membrane potential; type: cell-based, mouse; conditions: for mitochondrial membrane depolarization (in words): 25 µM; for JC-1 Aggregates / JC-1 Monomers: representative dot plot
[3] = NO release, Griess assay (phosphate buffer pH 7.4 with L-cysteine); type: physicochemical; conditions: for NO Released (%) 1 h: 1 h incubation, expressed as % NO2− (μmol/μmol), Griess assay, physiological conditions, furoxan 100 µM; for NO Released (%) 24 h: 24 h incubation; for NO Released (%) 24 h / NO Released (%) 48 h: % NO2− (μmol/μmol); for NO Released (%) 48 h: 48 h incubation; for NO-donor ranking (in words): among all tested compounds
[4] = tested on: MRC-5 (human embryonic lung fibroblast) cells; test: MTT cytotoxicity, MRC-5 cells, 72 h; type: cell-based; conditions: MRC5, 72 h exposure
[5] = tested on: JU77 (human malignant mesothelioma) cells; test: cells; conditions: 72 h, read-out: IC50 JU77
AB1 cells [6] = test: Annexin V/PI assay, flow cytometry; type: cell-based, mouse; conditions: 25 µM, 24 h
[7] = tested on: AB1 (mouse malignant mesothelioma) cells; test: cells; conditions: AB1, 72 h, read-out: IC50 AB1
AB1 cells [8] = test: NO release in vitro in AB1 cells (Griess reagent); type: cell-based, mouse; conditions: 25 μM, 24 h, relative to untreated cells
[9] = tested on: JU77 (human malignant mesothelioma) cells; conditions: for SF JU77 (selectivity factor): ratio of the IC50 value in MRC-5 to that in JU77
[10] = tested on: AB1 (mouse malignant mesothelioma) cells
AB1 and JU77 cell lines [11] = test: cells; conditions: MPM, 72 h, read-out: IC50 (cytotoxicity) in both MPM cell lines
[12] = tested on: AB1 (mouse malignant mesothelioma) cells; design: method as in PMID 40006597; conditions: MTT, 72 h exposure; cited from earlier work
[13] = tested on: MRC-5 (human embryonic lung fibroblast) cells; design: method as in PMID 40006597; conditions: MTT, 72 h exposure; cited from earlier work
[14] = tested on: JU77 (human malignant mesothelioma) cells; design: method as in PMID 40006597; conditions: MTT, 72 h exposure; cited from earlier work
AB1 and JU77 cell lines [15] = tested on: AB1 and JU77 cell lines
[16] = Stability in DMSO-d6 by 1H NMR spectroscopy; type: physicochemical; conditions: DMSO-d6, 1H NMR spectra after 1, 20, 48 and 120 h
Description: For the synthesis of the target bis(1,2,4-oxadiazolyl)furoxans, we employed a synthetic approach based on the reaction of readily available furoxanylbis(amidoxime) 1c with in situ activated carboxylic acids, except for compound 2a, which was synthesized using orthoformate in the presence of boron trifluoride etherate. Specifically, activation of the corresponding carboxylic acid with 1,1′-carbonyldiimidazole, followed by the addition of bis(amidoxime) 1c and 1,4-diazabicyclo [2.2.2]octane (DABCO) as a base to promote the heterocyclization step, afforded the desired heterocyclic assemblies 2b–l (Scheme 1, Figures S1–S24). […] The stability of the synthesized heterocyclic compounds was further examined in DMSO-d6 via ^1H NMR spectroscopy. The representative compound 2j was completely stable in solution for at least 120 h. The corresponding set of ^1H NMR spectra recorded for 2j after 1, 20, 48, and 120 h is provided in the (supporting information (SI) Figure S25).
Figure S25. Stability of the representative compound 2j for 1 h, 20 h, 48 h and 120 h in DMSO -[d6] according to 1H NMR spectroscopy.
(1 picture or pasted object on this page, not shown here)

[17] = positive control, 20 μM, 30 min

| IC50 [5] [µM] | IC50 [7] [µM] | Compound | NO Released (%) 1 h [3] [%] | NO Released (%) 24 h [3] [%] | NO Released (%) 48 h [3] [%] | IC50 [4] [µM] | intracellular NO release (in words) (AB1 cells [8]) | SF JU77 (selectivity factor) [9] | further results |
| --- | --- | --- | --- | --- | --- | --- | --- | --- | --- |
| – | – | CCOc1no[n+]([O-])c1S(=O)(=O)c1ccccc1 [CHF-2363, 4-ethoxy-3-phenylsulfonylfuroxan] | – | – | – | – | – | – | NO Released (%) 1 h [1]: 26% and 26 ± 10%; NO Released (%) 24 h [1]: 71 ± 4%; NO Released (%) 48 h [1]: 77 ± 9% |
| 10.5 ± 0.5 | 33.9 ± 3.4 | [O-][n+]1onc(-c2noc(-c3ccccc3)n2)c1-c1noc(-c2ccccc2)n1 [2e] | 51 ± 10 | 61 ± 12 | 64 ± 2 | 17.7 ± 3.8 | minimal NO release | 1.6 | cytotoxic effects in the AB1 cell line (in words) [10]: no cytotoxic effects |
| – | – | NC(=O)c1c(CO)no[n+]1[O-] [CAS-1609, 3-carbamoyl-4-(hydroxymethyl)furoxan] | – | – | – | – | – | – | NO Released (%) 1 h [1]: 27% and 27 ± 3%; NO Released (%) 24 h [1]: 68 ± 6%; NO Released (%) 48 h [1]: 73 ± 6% |
| – | – | N.N.[Cl][Pt][Cl] [Cisplatin, cisplatin] | – | – | – | – | – | – | IC50 [12]: 5.8 ± 1 µM; IC50 [13]: 3.1 ± 1.2 µM; IC50 [14]: 4.2 ± 0.5 µM |
| 16 ± 3.9 | > 25 | Cc1ccc(-c2nc(-c3no[n+]([O-])c3-c3noc(-c4ccc(C)cc4)n3)no2)cc1 [2h] | 37 ± 5 | 52 ± 1 | 56 ± 1 | > 25 | minimal NO release | >1.6 | cytotoxic effects in the AB1 cell line (in words) [10]: no cytotoxic effects; cytotoxicity (in words) (AB1 and JU77 cell lines [15]): lacked cytotoxic effects |
| – | – | N#CC(C#N)=NNc1cccc(Cl)c1 [CCCP, carbonyl cyanide 3-chlorophenylhydrazone, reference compound] | – | – | – | – | – | – | JC-1 Aggregates (AB1 cells [2]; [17]): 30.1%; JC-1 Monomers (AB1 cells [2]; [17]): 69.9% |
| 14.1 ± 4.1 | 8.5 ± 2.1 | [O-][n+]1onc(-c2noc(-c3ccncc3)n2)c1-c1noc(-c2ccncc2)n1 [2f] | 71 ± 15 | 94 ± 15 | 103 ± 14 | 29.9 ± 1.6 | highest levels of intracellular NO and high | 2.1 | mitochondrial membrane depolarization (in words) (AB1 cells [2]; 24 h): markedly higher and relatively comparable levels of depolarization; JC-1 Aggregates (AB1 cells [2]; 25 μM, 24 h): 87.6%; JC-1 Monomers (AB1 cells [2]; 25 μM, 24 h): 12.4%; NO-donor ranking (in words) [3]: most effective NO donors; total amount of released NO ([3]; with longer incubation periods): exceeded 100%; IC50 (AB1 and JU77 cell lines [11]): 3 to 14 µM; decrease of cytotoxicity in JU77 cells relative to 2a [9]: 1.6 fold; increase of cytotoxicity in AB1 cells relative to 2a [10]: 1.4 fold |
| 19.7 ± 2.1 | 21.7 ± 4.5 | COc1ccc(-c2nc(-c3no[n+]([O-])c3-c3noc(-c4ccc(OC)c(OC)c4)n3)no2)cc1OC [2j] | 35 ± 2 | 37 ± 3 | 39 ± 5 | 25.7 ± 8.7 | – | 1.3 | time completely stable in solution [16]: at least 120 h |
| > 25 | > 25 | COc1ccc(-c2nc(-c3no[n+]([O-])c3-c3noc(-c4ccc(OC)cc4)n3)no2)cc1 [2i] | 75 ± 1 | 78 ± 5 | 89 ± 3 | > 25 | minimal NO release | – | NO-donor ranking (in words) [3]: most effective NO donors; cytotoxic effects in the AB1 cell line (in words) [10]: no cytotoxic effects; cytotoxicity (in words) (AB1 and JU77 cell lines [15]): lacked cytotoxic effects |

| Compound | IC50 [5] [µM] | IC50 [7] [µM] | NO Released (%) 1 h [3] [%] | NO Released (%) 24 h [3] [%] | NO Released (%) 48 h [3] [%] | IC50 [4] [µM] | intracellular NO release (in words) (AB1 cells [8]) | SF JU77 (selectivity factor) [9] | further results |
| --- | --- | --- | --- | --- | --- | --- | --- | --- | --- |
| [O-][n+]1onc(-c2noc(-c3ccccc3Cl)n2)c1-c1noc(-c2ccccc2Cl)n1 [2k] | 4.9 ± 1.2 | 15.5 ± 3 | 37 ± 5 | 41 ± 8 | 43 ± 7 | 7.8 ± 2.3 | low | – | mitochondrial membrane depolarization (in words) (AB1 cells [2]; 24 h): least mitochondrial damage; JC-1 Aggregates (AB1 cells [2]; 25 μM, 24 h): 96.3%; JC-1 Monomers (AB1 cells [2]; 25 μM, 24 h): 3.7%; induction of apoptosis/necrosis (in words) (AB1 cells [6]): did not induce significant cancer cell death |
| O=[N+]([O-])c1cccc(-c2nc(-c3no[n+]([O-])c3-c3noc(-c4cccc([N+](=O)[O-])c4)n3)no2)c1 [2c] | 7.3 ± 1 | 19.9 ± 4.3 | 37 ± 1 | 49 ± 2 | 63 ± 2 | 27.9 ± 4.6 | – | 3.8 | – |
| O=[N+]([O-])c1ccccc1-c1nc(-c2no[n+]([O-])c2-c2noc(-c3ccccc3[N+](=O)[O-])n2)no1 [2d] | 3 ± 0.4 | 11.2 ± 2 | 54 ± 14 | 69 ± 14 | 72 ± 13 | 16.8 ± 5.7 | highest levels of intracellular NO | 5.7 | IC50 (AB1 and JU77 cell lines [11]): 3 to 14 µM |
| O=[N+]([O-])c1ccc(-c2nc(-c3no[n+]([O-])c3-c3noc(-c4ccc([N+](=O)[O-])cc4)n3)no2)cc1 [2b] | > 25 | > 25 | 38 ± 3 | 46 ± 1 | 48 ± 2 | > 25 | minimal NO release | – | – |
